Measured values as given in US11578084B2, “Condensed ring compounds having dopamine D3 receptor antagonistic effect” (Shionogi & Co., Ltd., priority 2018, dated 2023).

How the values were obtained:
[1] = target: human recombinant dopamine D3 receptor (Homo sapiens (Human), UniProt P35462); assay: Test of binding inhibition for dopamine D3 receptor ([3H]-Methylspiperone SPA); settings: Jump-In HEK cell membranes, 2 nM [3H]-Methylspiperone, 120 min at 25° C.; read-out: hD3_Ki
Summary of the method: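 SPA radioligand binding on Jump-In HEK membranes expressing human D3 receptor (4 µg/well) with 2 nM [3H]-methylspiperone (final), incubated 120 min at 25 °C. Non-specific binding defined with 10 µM butaclamol. Percent inhibition computed against total and non-specific binding; Ki from dose-response curves.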

[2] = target: human recombinant dopamine D2 receptor (Homo sapiens (Human), UniProt P14416); assay: Test of binding inhibition for dopamine D2 receptor ([3H]-Methylspiperone SPA); settings: Jump-In HEK cell membranes, 1.2 nM [3H]-Methylspiperone, 120 min at 25° C.; read-out: hD2_Ki
human recombinant dopamine D2 receptor, sequence (P14416 whole entry): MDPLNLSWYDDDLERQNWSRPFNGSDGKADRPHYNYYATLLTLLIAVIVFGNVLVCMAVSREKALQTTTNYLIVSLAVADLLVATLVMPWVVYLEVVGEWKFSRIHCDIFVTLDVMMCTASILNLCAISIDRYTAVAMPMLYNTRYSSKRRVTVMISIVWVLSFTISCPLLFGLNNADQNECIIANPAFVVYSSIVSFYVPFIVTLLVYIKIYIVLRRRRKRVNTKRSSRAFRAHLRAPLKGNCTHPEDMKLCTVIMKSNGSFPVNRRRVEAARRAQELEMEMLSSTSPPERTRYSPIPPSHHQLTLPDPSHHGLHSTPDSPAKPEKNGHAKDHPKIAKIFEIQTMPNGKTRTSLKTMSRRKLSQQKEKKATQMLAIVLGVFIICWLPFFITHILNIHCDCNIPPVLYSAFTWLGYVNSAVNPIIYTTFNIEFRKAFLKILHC
Summary of the method: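 Incubation was 120 min at 25° C. with human recombinant D2 membranes from Jump-In HEK cells (2 μg/well), WGA SPA beads (0.2 mg/well) and [3H]-Methylspiperone as radioligand.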

[3] = target: hERG channel (IKr) (Homo sapiens (Human), UniProt Q12809); assay: hERG test (whole cell patch clamp, IKr); format: cell-based; settings: human, CHO cells expressing hERG channel, pH 7.4, 3 μM, tail peak current
hERG channel (IKr), sequence (Q12809 whole entry): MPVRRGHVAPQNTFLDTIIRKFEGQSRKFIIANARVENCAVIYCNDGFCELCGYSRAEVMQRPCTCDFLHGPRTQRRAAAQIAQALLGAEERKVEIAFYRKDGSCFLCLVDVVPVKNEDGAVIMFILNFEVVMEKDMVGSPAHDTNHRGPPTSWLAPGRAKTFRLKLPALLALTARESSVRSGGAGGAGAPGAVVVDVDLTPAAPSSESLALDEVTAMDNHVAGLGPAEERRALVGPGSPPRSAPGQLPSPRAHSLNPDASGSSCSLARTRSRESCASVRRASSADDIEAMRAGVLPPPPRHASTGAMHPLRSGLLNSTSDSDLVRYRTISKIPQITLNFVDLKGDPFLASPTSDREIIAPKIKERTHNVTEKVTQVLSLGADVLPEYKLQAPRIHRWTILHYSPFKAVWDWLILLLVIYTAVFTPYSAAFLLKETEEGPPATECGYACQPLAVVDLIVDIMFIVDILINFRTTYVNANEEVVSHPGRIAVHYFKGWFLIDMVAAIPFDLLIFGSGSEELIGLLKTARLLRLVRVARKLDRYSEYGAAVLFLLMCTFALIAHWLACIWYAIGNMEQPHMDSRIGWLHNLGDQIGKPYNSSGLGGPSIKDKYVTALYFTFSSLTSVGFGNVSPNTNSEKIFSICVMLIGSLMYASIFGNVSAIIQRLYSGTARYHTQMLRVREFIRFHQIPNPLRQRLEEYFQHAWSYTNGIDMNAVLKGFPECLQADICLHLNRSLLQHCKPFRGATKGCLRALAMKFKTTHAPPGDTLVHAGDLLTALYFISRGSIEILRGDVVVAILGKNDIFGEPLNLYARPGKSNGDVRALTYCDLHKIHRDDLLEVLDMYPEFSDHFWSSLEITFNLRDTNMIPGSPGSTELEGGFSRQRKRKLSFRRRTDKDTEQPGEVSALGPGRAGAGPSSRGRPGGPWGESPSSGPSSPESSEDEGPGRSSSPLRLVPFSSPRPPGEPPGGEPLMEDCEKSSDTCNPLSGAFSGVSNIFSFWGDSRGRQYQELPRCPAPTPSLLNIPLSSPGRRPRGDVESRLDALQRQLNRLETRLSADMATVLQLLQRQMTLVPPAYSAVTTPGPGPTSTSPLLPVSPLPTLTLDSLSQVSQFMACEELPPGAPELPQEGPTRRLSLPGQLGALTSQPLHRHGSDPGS
Description: Test Example 10: hERG Test
For the purpose of assessing risk of an electrocardiogram QT interval prolongation of the compound of the present invention, effects of the compound of the present invention on delayed rectifier K+ current (IKr), which plays an important role in the ventricular repolarization process, was studied using CHO cells expressing human ether-a-go-go related gene (hERG) channel.
After a cell was retained at a membrane potential of −80 mV by whole cell patch clamp method using an automated patch clamp system (QPatch; Sophion Bioscience A/S) and gave a leak potential of −50 mV, IKr induced by depolarization pulse stimulation at +20 mV for 2 seconds and, further, repolarization pulse stimulation at −50 mV for 2 seconds, was recorded. After the generated current was stabilized, extracellular solution (NaCl: 145 mmol/L, KCl: 4 mmol/L, CaCl2): 2 mmol/L, MgCl2: 1 mmol/L, glucose: 10 mmol/L, HEPES (4-(2-hydroxyethyl)-1-piperazineethanesulfonic acid): 10 mmol/L, pH=7.4), in which the compound of the present invention had been dissolved at an objective concentration in the extracellular solution, was applied to the cell at room temperature for 7 minutes or more. From the recording IKr, an absolute value of the tail peak current was measured based on the current value at the resting membrane potential using analysis software (QPatch Assay software; Sophion Bioscience A/S). Further, the % inhibition of tail peak current for the compound of the present invention relative to the tail peak current after application of the solution (0.1% dimethyl sulfoxide solution) was calculated to assess influence of the compound of the present invention on IKr.

human recombinant dopamine D3 receptor, sequence (P35462 whole entry): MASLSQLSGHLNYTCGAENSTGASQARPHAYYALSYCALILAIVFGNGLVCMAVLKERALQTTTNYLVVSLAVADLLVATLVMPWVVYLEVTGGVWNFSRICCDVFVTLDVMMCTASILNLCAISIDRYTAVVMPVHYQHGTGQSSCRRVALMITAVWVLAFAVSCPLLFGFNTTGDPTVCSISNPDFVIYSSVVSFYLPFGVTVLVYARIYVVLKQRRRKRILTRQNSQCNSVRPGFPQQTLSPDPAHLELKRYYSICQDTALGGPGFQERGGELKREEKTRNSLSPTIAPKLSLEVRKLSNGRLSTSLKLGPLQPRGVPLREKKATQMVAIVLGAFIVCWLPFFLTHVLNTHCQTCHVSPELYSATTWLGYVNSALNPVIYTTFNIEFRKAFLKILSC

Compound	Ki [1]	Ki [2]	inhibition at 3 µM [3]
CN1Cc2c(C(=O)N[C@H]3CC[C@H](CCN4CCc5sc(OC6CC(F)(F)C6)nc5C4)CC3)cccc2C1=O [Example I-001]	0.2 nM	290 nM	21.3%
Cn1cc2c(C(=O)N[C@H]3CC[C@H](CCN4CCc5ccc(OCC(C)(C)F)nc5CC4)CC3)cccc2n1 [Example I-003]	0.15 nM	780 nM	31%
Cn1cc(CC(=O)N[C@H]2CC[C@H](CCN3CCc4nc(OCC(C)(F)F)sc4CC3)CC2)cn1 [Example I-004]	0.15 nM	700 nM	21.6%
Cc1ncc(CC(=O)N[C@H]2CC[C@H](CCN3CCc4ccc(OC(C)C)nc4CC3)CC2)o1 [Example I-006]	0.59 nM	> 1900 nM	23%
Cc1nnc(CC(=O)N[C@H]2CC[C@H](CCN3CCc4ccc(OC(C)C)nc4CC3)CC2)s1 [Example I-007]	0.68 nM	1500 nM	33.7%
Cc1nc(CC(=O)N[C@H]2CC[C@H](CCN3CCc4nc(OCC(C)(F)F)sc4CC3)OC2)no1 [Example I-008]	0.96 nM	> 1900 nM	20.8%
Cn1cc2c(C(=O)N[C@H]3CC[C@H](CCN4CCc5nc(OCC(C)(F)F)sc5CC4)OC3)cccc2n1 [Example I-009]	0.12 nM	690 nM	33.8%
COc1cc(CC(=O)N[C@H]2CC[C@H](CCN3CCc4nc(OCC(C)(F)F)sc4CC3)OC2)on1 [Example I-010]	0.13 nM	930 nM	32%
Cc1nnc(CC(=O)N[C@H]2CC[C@H](CCN3CCc4sc(C5CC(F)(F)C5)nc4C3)OC2)o1 [Example I-011]	0.32 nM	950 nM	10.6%
CN1Cc2c(C(=O)N[C@H]3CC[C@H](CCN4CCc5sc(C6CC(F)(F)C6)nc5C4)CC3)cccc2C1=O [Example I-012]	0.15 nM	260 nM	19%
Cc1nc(CC(=O)N[C@H]2CC[C@](F)(CCN3CCc4nc(OCC(C)(F)F)sc4CC3)CC2)no1 [Example I-013]	0.53 nM	920 nM	21.4%
Cc1nnc(CC(=O)N[C@H]2CC[C@](F)(CCN3CCc4nc(OCC(C)(F)F)sc4CC3)CC2)o1 [Example I-014]	0.48 nM	980 nM	3.83%
Cc1cnc(CC(=O)N[C@H]2CC[C@](F)(CCN3CCc4nc(OCC(C)(F)F)sc4CC3)CC2)o1 [Example I-015]	0.26 nM	1000 nM	24.3%
Cn1cc2c(C(=O)NN3CCC(CCN4CCc5ccc(OCC(F)(F)F)nc5CC4)CC3)cccc2n1 [Example I-016]	0.039 nM	850 nM	19.1%
Cn1cc(CC(=O)N[C@H]2CC[C@](F)(CCN3CCc4ccc(OCC(C)(F)F)nc4CC3)CC2)cn1 [Example I-017]	0.063 nM	240 nM	21.6%
Cc1nnc(CC(=O)N[C@H]2CC[C@](F)(CCN3CCc4ccc(OCC(C)(F)F)nc4CC3)CC2)s1 [Example I-018]	0.035 nM	190 nM	33.8%
Cc1ncccc1C(=O)N[C@H]1CC[C@H](CCN2CCc3nc(OC4CC(F)(F)C4)sc3CC2)CC1 [Example I-019]	0.37 nM	> 1800 nM	8.86%
Cc1nnc(CC(=O)N[C@H]2CC[C@H](CCN3CCc4nc(OC5CC(F)(F)C5)sc4CC3)CC2)o1 [Example I-020]	0.27 nM	> 1800 nM	23.1%
Cn1cc(CC(=O)N[C@H]2CC[C@H](CCN3CCc4nc(OC5CC(F)(F)C5)sc4CC3)CC2)cn1 [Example I-021]	0.15 nM	1900 nM	24.3%
Cc1cc(OCC(=O)N[C@H]2CC[C@H](CCN3CCc4nc(OC5CC(F)(F)C5)sc4CC3)CC2)no1 [Example I-022]	0.1 nM	> 2300 nM	32.6%
Cn1ncc(CC(=O)N[C@H]2CC[C@H](CCN3CCc4nc(OC5CC(F)(F)C5)sc4CC3)CC2)n1 [Example I-023]	0.11 nM	> 2200 nM	16.5%

Compound	Ki [1]	Ki [2]	inhibition at 3 µM [3]
Cc1nc(CC(=O)N[C@H]2CC[C@](F)(CCN3CCc4ccc(OCC(F)F)nc4CC3)CC2)no1 [Example I-024]	0.2 nM	> 2200 nM	18.7%
Cc1nnc(CC(=O)N[C@H]2CC[C@](F)(CCN3CCc4ccc(OCC(F)F)nc4CC3)CC2)o1 [Example I-025]	0.46 nM	820 nM	14.9%
Cc1ncc(CC(=O)N[C@H]2CC[C@](F)(CCN3CCc4ccc(OCC(F)F)nc4CC3)CC2)o1 [Example I-026]	0.095 nM	1100 nM	20.1%
Cn1cc(CC(=O)N[C@H]2CC[C@](F)(CCN3CCc4ccc(OCC(F)F)nc4CC3)CC2)cn1 [Example I-027]	0.23 nM	1000 nM	14.3%
Cn1cc2c(C(=O)NN3CCC(F)(CCN4CCc5sc(OCC(F)(F)F)nc5C4)CC3)cccc2n1 [Example I-028]	0.41 nM	640 nM	9.09%
Cn1c(C(=O)N[C@H]2CC[C@](F)(CCN3CCc4ccc(OCC(F)F)nc4CC3)CC2)cccc1=O [Example I-029]	0.36 nM	610 nM	8.37%
Cc1ncc(OCC(=O)N[C@H]2CC[C@](F)(CCN3CCc4ccc(OCC(F)F)nc4CC3)CC2)cn1 [Example I-030]	0.3 nM	610 nM	26.1%
Cn1cc(CC(=O)N[C@H]2CC[C@H](CCN3CCc4ccc(OC5CCC5)nc4CC3)CC2)cn1 [Example I-032]	0.48 nM	> 2200 nM	31.9%
Cc1ncc(CC(=O)N[C@H]2CC[C@H](CCN3CCc4ccc(OC5CCC5)nc4CC3)CC2)o1 [Example I-033]	0.78 nM	> 2200 nM	12.2%
Cc1ncccc1C(=O)N[C@H]1CC[C@H](CCN2CCc3nc(OCC(C)(F)F)sc3CC2)CC1 [Example I-034]	0.36 nM	560 nM	34.3%
Cn1cc2c(C(=O)N[C@H]3CC[C@H](CCN4CCc5sc([C@H]6C[C@@H](F)C6)nc5C4)CC3)cccc2n1 [Example I-035]	0.18 nM	210 nM	16%
Cc1cnc(CC(=O)N[C@H]2CC[C@H](CCN3CCc4nc(OCC(C)(F)F)sc4CC3)CC2)o1 [Example I-036]	0.54 nM	910 nM	29.8%
Cc1ncc(/C=C/C(=O)N[C@H]2CC[C@H](CCN3CCc4nc(OCC(C)(F)F)sc4CC3)CC2)cn1 [Example I-037]	0.097 nM	240 nM	28%
Cc1cnc(CC(=O)N[C@H]2CC[C@](F)(CCN3CCc4nc(OCC(F)F)sc4CC3)CC2)o1 [Example I-038]	0.81 nM	> 1700 nM	21.4%
Cc1nc(CC(=O)N[C@H]2CC[C@](F)(CCN3CCc4nc(OCC(F)F)sc4CC3)CC2)no1 [Example I-039]	1 nM	1200 nM	22.3%
Cc1nnc(CC(=O)N[C@H]2CC[C@](F)(CCN3CCc4nc(OCC(F)F)sc4CC3)CC2)s1 [Example I-040]	0.46 nM	890 nM	23.2%
Cc1cnc(CC(=O)N[C@H]2CC[C@H](CCN3CCc4sc(C5CC(F)(F)C5)nc4C3)CC2)o1 [Example I-041]	0.17 nM	620 nM	18.1%
Cc1ncccc1C(=O)N[C@H]1CC[C@](F)(CCN2CCc3nc(OCC(C)(F)F)sc3CC2)CC1 [Example I-042]	0.57 nM	1000 nM	10.8%
Cc1ncc(CC(=O)N[C@H]2CC[C@](F)(CCN3CCc4nc(OCC(C)(F)F)sc4CC3)CC2)o1 [Example I-043]	0.12 nM	970 nM	20.7%
Cc1ncc(OCC(=O)N[C@H]2CC[C@](F)(CCN3CCc4nc(OCC(C)(F)F)sc4CC3)CC2)cn1 [Example I-044]	0.14 nM	610 nM	23.7%
Cc1cnc(OCC(=O)N[C@H]2CC[C@H](CCN3CCc4sc(OCC(C)(F)F)nc4C3)CC2)cn1 [Example I-046]	0.34 nM	500 nM	14.3%
